From patent US20110118304A1, “METHOD FOR TREATING OVER-EATING DISORDERS” (NeuroSearch A/S, priority 2007, published 2011) come the findings set out here.

The test system of the assay is Diet-Induced Obese Rats. Kind of assay: Effect of tesofensine on food-intake in diet-induced obese rats. It counts as in vivo, male Sprague-Dawley rats. As to conditions: single subcutaneous injection of 1,5 mg/kg at lights out; diet-induced obese rats on high-fat diet; versus vehicle (saline); FIG. 1. How it is done: These rats were from 3-5 weeks of age only given access to a high-fat diet (#12266B; 31.8% kcal from fat, energy density […], Research Diets, New Jersey). After 17 weeks on high-fat diet, animals were stratified according to body weight. Tesofensine was injected in different doses to male Sprague-Dawley rats. Vehicle (saline), or tesofensine at different doses (from 0,5 mg/kg to 2,0 mg/kg) was administered as a single subcutaneous injection at lights out. The level of food-intake was continuously determined over the next 18 hours in an automated food-delivering system.
In FIG. 1, the level of food-intake over night is illustrated of two groups of animals; receiving either a single dose of 1,5 mg/kg tesofensine (triangles) or vehicle (squares).
In FIG. 2, a relation between increasing doses of tesofensine and the accumulated food-intake over a 18 h observation is shown.

Take `CCOC[C@@H]1[C@@H](c2ccc(Cl)c(Cl)c2)C[C@@H]2CC[C@H]1N2C` [tesofensine, (1R,2R,3S,5S)-3-(3,4-dichlorophenyl)-2-(ethoxymethyl)-8-methyl-8-azabicyclo[3.2.1]octane]: the “level of food-intake over night” value is recorded as “inhibits food intake over night”.
